# The supplement of paper PMC10307832
# Compound: Cc1cc([C@@H](C)Nc2ccccc2C(=O)O)c2nc(N3CCOCC3)cc(=O)n2c1 [AZD6482] + CS(=O)(=O)N1CCN(Cc2cc3nc(-c4cccc5[nH]ncc45)nc(N4CCOCC4)c3s2)CC1 [Pictilisib] (partner 1 µM)
# Assay: relative viability (nuclei count vs DMSO), 5 days (fraction); higher = more cells survive
# Conditions: first compound 8 µM
# Outline: (§1)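 One day after seeding in 1536-well plates, lung cancer cell lines were dosed by pin tool. Dosing was either single-drug or a fixed anchor-drug dose plus five library-drug doses (not always all listed) in √10 steps. After 5 days, nuclei were stained in one fix-and-stain step and counted on 4× images, and relative viability is the nuclei count of treated wells over that of vehicle wells, given as the median of duplicate plates.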
row,Cell Line,relative viability
1,NCI-H2085,0.407
2,Calu-6,0.937
3,HCC-366,0.129
4,NCI-H1666,0.405
5,NCI-H596,0.441
6,LK-2,0.677
7,NCI-H2087,0.889
8,SK-MES-1,0.35
9,H3255,0.47
10,COR-L23,0.748
11,COR-L 105,0.309
12,IA-LM,0.366
13,LOU-NH91,0.493
14,ChaGo-K-1,0.977
15,NCI-H2170,0.317
16,NCI-H2405,0.386
17,HOP-62,0.667
18,HCC-44,0.531
19,A549,0.386
20,NCI-H2009,0.743
21,NCI-H661,0.356
22,SK-LU-1,0.448
23,NCI-H1299,0.678
24,CAL-12T,0.432
25,NCI-H2228,0.387
26,NCI-H2023,0.24
27,NCI-H1563,0.673

# Compound: Cc1cc([C@@H](C)Nc2ccccc2C(=O)O)c2nc(N3CCOCC3)cc(=O)n2c1 [AZD6482] + NC(=O)Nc1cc(-c2cccc(F)c2)sc1C(=O)N[C@H]1CCCNC1 [AZD7762] (partner 0.2 µM)
# Assay: as above
# Conditions: first compound 0.08 µM
# Outline: as §1
row,Cell Line,relative viability
1,NCI-H2342,0.532
2,NCI-H727,0.684
3,NCI-H1993,0.454
4,NCI-H838,0.936
5,LCLC-103H,0.626
6,NCI-H2126,1.02
7,EMC-BAC-2,1.03
8,NCI-H2085,0.522
9,HCC-366,0.23
10,NCI-H1666,0.79
11,NCI-H596,0.874
12,LK-2,0.386
13,NCI-H2087,1.35
14,NCI-H1648,0.708
15,H3255,0.895
16,LOU-NH91,0.695
17,ChaGo-K-1,0.897
18,NCI-H2170,0.806
19,NCI-H2405,0.563
20,HOP-62,0.577
21,HCC-44,0.897
22,NCI-H522,0.764
23,SW 900,0.402
24,CAL-12T,0.686

# Same assay, conditions: first compound 0.253 µM
row,Cell Line,relative viability
1,NCI-H2342,0.352
2,NCI-H727,0.596
3,NCI-H1993,0.734
4,NCI-H838,0.902
5,LCLC-103H,0.721
6,NCI-H2126,0.849
7,EMC-BAC-2,0.958
8,NCI-H2085,0.372
9,HCC-366,0.243
10,NCI-H1666,0.776
11,NCI-H596,1.05
12,LK-2,0.362
13,NCI-H2087,1.35
14,NCI-H1648,0.674
15,H3255,0.83
16,LOU-NH91,0.69
17,ChaGo-K-1,0.775
18,NCI-H2170,0.788
19,NCI-H2405,0.658
20,HOP-62,0.626
21,HCC-44,0.997
22,NCI-H522,0.73
23,SW 900,0.512
24,CAL-12T,0.647

# Same assay, conditions: first compound 0.8 µM
row,Cell Line,relative viability
1,NCI-H2342,0.567
2,NCI-H727,0.596
3,NCI-H1703,0.333
4,NCI-H1993,0.717
5,NCI-H838,0.934
6,LCLC-103H,0.619
7,NCI-H2126,1.02
8,EMC-BAC-2,1.02
9,NCI-H2085,0.41
10,HCC-366,0.253
11,NCI-H1666,0.958
12,NCI-H596,1.07
13,LK-2,0.434
14,NCI-H2087,1.46
15,NCI-H1648,0.872
16,H3255,0.984
17,LOU-NH91,0.704
18,ChaGo-K-1,0.946
19,NCI-H2170,0.785
20,NCI-H2405,0.697
21,HOP-62,0.706
22,HCC-44,1.1
23,NCI-H522,0.803
24,SW 900,0.445
25,CAL-12T,0.677

# Same assay, conditions: first compound 2.53 µM
row,Cell Line,relative viability
1,NCI-H2342,0.337
2,NCI-H1703,0.131
3,NCI-H1993,0.427
4,NCI-H838,0.78
5,LCLC-103H,0.579
6,NCI-H2126,0.795
7,EMC-BAC-2,0.818
8,NCI-H2085,0.289
9,HCC-366,0.179
10,NCI-H1666,0.835
11,NCI-H596,0.925
12,LK-2,0.239
13,NCI-H2087,0.887
14,H3255,0.697
15,LOU-NH91,0.519
16,ChaGo-K-1,0.823
17,NCI-H2170,0.615
18,NCI-H2405,0.388
19,HOP-62,0.526
20,HCC-44,1.11
21,NCI-H522,0.762
22,SW 900,0.497
23,CAL-12T,0.468

# Same assay, conditions: first compound 8 µM
row,Cell Line,relative viability
1,NCI-H2342,0.374
2,NCI-H727,0.578
3,NCI-H1703,0.149
4,NCI-H1993,0.55
5,NCI-H838,0.759
6,LCLC-103H,0.562
7,NCI-H2126,0.762
8,EMC-BAC-2,0.679
9,NCI-H2085,0.341
10,HCC-366,0.25
11,NCI-H1666,0.767
12,NCI-H596,0.966
13,LK-2,0.271
14,NCI-H2087,1.09
15,NCI-H1648,0.6
16,H3255,0.692
17,LOU-NH91,0.543
18,ChaGo-K-1,0.915
19,NCI-H2170,0.566
20,NCI-H2405,0.374
21,HOP-62,0.761
22,HCC-44,1.38
23,NCI-H522,0.664
24,SW 900,0.501
25,CAL-12T,0.665

# Compound: Cc1cc([C@@H](C)Nc2ccccc2C(=O)O)c2nc(N3CCOCC3)cc(=O)n2c1 [AZD6482] + Nc1ncn([C@H]2C[C@H](O)[C@@H](CO)O2)c(=O)n1 [Decitabine] (partner 2 µM)
# Assay: as above
# Conditions: first compound 0.08 µM
# Outline: as §1
row,Cell Line,relative viability
1,NCI-H2342,0.636
2,NCI-H727,0.951
3,NCI-H1650,0.381
4,NCI-H1993,0.526
5,SW 1573,0.545
6,NCI-H838,0.436
7,LCLC-103H,0.597
8,NCI-H520,0.418
9,NCI-H2126,0.56
10,EMC-BAC-2,0.938
11,NCI-H2085,0.485
12,HCC-366,0.309
13,NCI-H1666,0.72
14,NCI-H596,0.865
15,LK-2,0.34
16,NCI-H2087,0.245
17,NCI-H1648,0.502

row,Cell Line,relative viability
1,SK-MES-1,0.331
2,H3255,0.474
3,COR-L23,0.418
4,COR-L 105,0.67
5,LOU-NH91,0.753
6,ChaGo-K-1,0.502
7,NCI-H2170,0.427
8,NCI-H2405,0.641
9,HOP-62,0.197
10,HCC-44,0.895
11,A549,0.27
12,NCI-H522,0.627
13,SW 900,0.412
14,NCI-H2009,0.387
15,NCI-H661,0.557
16,NCI-H2023,0.226

# Same assay, conditions: first compound 0.253 µM
row,Cell Line,relative viability
1,NCI-H2342,0.643
2,NCI-H727,0.85
3,NCI-H1650,0.571
4,NCI-H1993,0.481
5,SW 1573,0.449
6,NCI-H838,0.442
7,LCLC-103H,0.682
8,NCI-H520,0.331
9,NCI-H2126,0.565
10,EMC-BAC-2,0.956
11,NCI-H2085,0.456
12,HCC-366,0.302
13,NCI-H1666,0.687
14,NCI-H596,0.937
15,LK-2,0.315
16,NCI-H2087,0.232
17,NCI-H1648,0.453

row,Cell Line,relative viability
1,SK-MES-1,0.279
2,H3255,0.531
3,COR-L23,0.386
4,COR-L 105,0.68
5,LOU-NH91,0.828
6,ChaGo-K-1,0.494
7,NCI-H2170,0.443
8,NCI-H2405,0.666
9,HOP-62,0.239
10,HCC-44,0.937
11,A549,0.12
12,NCI-H522,0.6
13,SW 900,0.419
14,NCI-H2009,0.373
15,NCI-H661,0.569
16,SK-LU-1,0.567
17,NCI-H2023,0.185

# Same assay, conditions: first compound 0.8 µM
row,Cell Line,relative viability
1,NCI-H2342,0.736
2,NCI-H727,1.02
3,NCI-H1650,0.544
4,NCI-H1993,0.598
5,SW 1573,0.434
6,NCI-H838,0.433
7,LCLC-103H,0.677
8,NCI-H520,0.344
9,NCI-H2126,0.49
10,EMC-BAC-2,0.994
11,NCI-H2085,0.471
12,HCC-366,0.313
13,NCI-H1666,0.715
14,NCI-H596,0.972
15,LK-2,0.288
16,NCI-H2087,0.266
17,NCI-H1648,0.472

row,Cell Line,relative viability
1,SK-MES-1,0.396
2,H3255,0.539
3,COR-L23,0.456
4,COR-L 105,0.628
5,LOU-NH91,0.788
6,ChaGo-K-1,0.489
7,NCI-H2170,0.432
8,NCI-H2405,0.732
9,HOP-62,0.229
10,HCC-44,0.978
11,A549,0.209
12,NCI-H522,0.586
13,SW 900,0.45
14,NCI-H2009,0.361
15,NCI-H661,0.571
16,SK-LU-1,0.627
17,NCI-H2023,0.214

# Same assay, conditions: first compound 2.53 µM
row,Cell Line,relative viability
1,NCI-H2342,0.568
2,NCI-H1650,0.584
3,NCI-H1993,0.436
4,SW 1573,0.332
5,NCI-H838,0.428
6,LCLC-103H,0.716
7,NCI-H520,0.198
8,NCI-H2126,0.494
9,EMC-BAC-2,0.778
10,NCI-H2085,0.357
11,HCC-366,0.304
12,NCI-H1666,0.645
13,NCI-H596,1.01
14,LK-2,0.241
15,NCI-H2087,0.208
16,SK-MES-1,0.28

row,Cell Line,relative viability
1,H3255,0.388
2,COR-L23,0.396
3,COR-L 105,0.601
4,LOU-NH91,0.661
5,ChaGo-K-1,0.481
6,NCI-H2170,0.423
7,NCI-H2405,0.447
8,HOP-62,0.265
9,HCC-44,1
10,NCI-H522,0.585
11,SW 900,0.418
12,NCI-H2009,0.321
13,NCI-H661,0.498
14,SK-LU-1,0.549
15,NCI-H2023,0.269

# Same assay, conditions: first compound 8 µM
row,Cell Line,relative viability
1,NCI-H2342,0.587
2,NCI-H727,0.798
3,NCI-H1650,0.474
4,NCI-H1993,0.458
5,SW 1573,0.454
6,NCI-H838,0.364
7,LCLC-103H,0.519
8,NCI-H520,0.244
9,NCI-H2126,0.465
10,EMC-BAC-2,0.908
11,NCI-H2085,0.403
12,HCC-366,0.345
13,NCI-H1666,0.642
14,NCI-H596,0.946
15,LK-2,0.301
16,NCI-H2087,0.215
17,NCI-H1648,0.48

row,Cell Line,relative viability
1,SK-MES-1,0.275
2,H3255,0.472
3,COR-L23,0.366
4,COR-L 105,0.559
5,LOU-NH91,0.7
6,ChaGo-K-1,0.534
7,NCI-H2170,0.442
8,NCI-H2405,0.541
9,HOP-62,0.209
10,HCC-44,0.859
11,A549,0.347
12,NCI-H522,0.755
13,SW 900,0.434
14,NCI-H2009,0.342
15,NCI-H661,0.422
16,SK-LU-1,0.425
17,NCI-H2023,0.179
